Assay results from patent US10920265B2, “Compounds and methods for detection of enzymes that remove methyl succinyl groups from epsilon-amino lysine moieties” (Enzo Life Sciences, Inc., priority 2011, dated 2021).
*: point of attachment. AMC = Cc1cc(=O)oc2cc(N*)ccc12

Molecular target: T1, SIRT1 (Homo sapiens, UniProt Q96EB6)
T1 construct: purchased ENZO Life Sciences BML-SE239
T1 sequence (Q96EB6 1-747): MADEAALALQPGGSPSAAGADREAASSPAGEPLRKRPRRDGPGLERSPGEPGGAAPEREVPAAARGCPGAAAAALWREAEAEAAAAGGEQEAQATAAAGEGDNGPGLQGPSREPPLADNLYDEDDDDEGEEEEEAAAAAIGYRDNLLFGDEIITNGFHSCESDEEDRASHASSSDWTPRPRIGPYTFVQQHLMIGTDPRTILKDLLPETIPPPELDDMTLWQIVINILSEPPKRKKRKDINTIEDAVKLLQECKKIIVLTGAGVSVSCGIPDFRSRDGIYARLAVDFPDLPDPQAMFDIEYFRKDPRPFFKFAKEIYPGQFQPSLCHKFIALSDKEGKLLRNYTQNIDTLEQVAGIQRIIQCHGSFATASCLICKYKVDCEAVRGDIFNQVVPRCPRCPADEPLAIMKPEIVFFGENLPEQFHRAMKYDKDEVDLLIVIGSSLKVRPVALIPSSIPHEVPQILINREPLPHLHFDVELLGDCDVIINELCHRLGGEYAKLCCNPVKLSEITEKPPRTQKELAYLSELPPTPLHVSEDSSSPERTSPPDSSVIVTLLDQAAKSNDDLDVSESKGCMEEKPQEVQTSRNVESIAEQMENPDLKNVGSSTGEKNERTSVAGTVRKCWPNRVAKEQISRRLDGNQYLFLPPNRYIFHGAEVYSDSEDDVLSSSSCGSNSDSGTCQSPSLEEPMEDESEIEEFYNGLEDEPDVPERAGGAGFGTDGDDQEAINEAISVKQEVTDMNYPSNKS
Assay: Sirtuin activity with fluorogenic lysyl substrates
Format: biochemical
Conditions: 50 μM substrate, 500 μM NAD^+
Experimental: The Ac-Lys(Succ.)-AMC substrate was tested for activity with recombinant preparations of human HDACs 1-11, SIRTs 1-4, 6 and 7, a complex of HDAC3 with a fragment of the activating protein NCOR1 and with HeLa nuclear extract, a rich source of active HDACs in their native multiprotein complexes.
Enzyme and extract catalog products obtained from ENZO Life Sciences included: HDAC1 (Cat. # BML-SE456), HDAC2 (Cat. # BML-SE500), HDAC3 (Cat. # BML-SE507), HDAC3/NCOR1 Complex (Cat. # BML-SE515), HDAC6 (Cat. # BML-SE508), HDAC8 (Cat. # BML-SE145), HDAC10 (Cat. # BML-SE559), HDAC11 (Cat. # BML-SE560), SIRT1 (Cat. # BML-SE239), SIRT2 (Cat. # BML-SE251), SIRT3 (Cat. # BML-SE270), SIRT5 (Cat. # BML-SE555), HeLa Nuclear Extract (Cat. # BML-KI140), Trypsin (“Fluor de Lys Developer”, 80 mg/ml bovine trypsin in 1 mM HCl, Cat. # BML-KI105 or “Fluor de Lys Developer II”, 80 mg/ml bovine trypsin in 1 mM HCl, Cat. # BML-KI176). […] Enzymes obtained from BPS Bioscience, San Diego, Calif. included: human recombinants SIRT4 (Cat. #50015), SIRT6 (Cat. #50017), SIRT7 (Cat. #50018). HeLa whole cell extract was obtained from HeLa S3 cells (American Type Culture Collection) grown in a medium of MEM/10% fetal bovine serum (FBS) as follows: 1) 9×10^6 cells were suspended by trypsinization, followed by a phosphate buffered saline (PBS) rinse and addition of MEM/10% FBS (1.5 mL) to eliminate trypsin before transfer to a 15 mL conical tube; 2) cells were sedimented by a low speed centrifugation, gently resuspended in PBS and sedimented again and supernatant removed; 3) lysis was induced by resuspension in 0.8 mL 50 mM Tris/HCl, pH 8.0 with the non-denaturing detergent NP-40 (0.5%), placement on ice and brief vortexing every 5 min. for 30 min.; 4) 100 μl of a concentrated salt solution in the same buffer was added in order to bring the final buffer composition to 50 mM Tris/C1, pH 8.0, 137 mM NaCl, 2.7 mM KCl, 1 mM MgCl2, 0.5% NP-40; 5) particulate matter was cleared by centrifugation and the cleared lysate supernatant transferred to a 1.5 mL Eppendorf tube and stored on ice until use in activity assays.
Assays were performed at 37° C., according to the manufacturer's instructions for the “SIRT1 Fluorometric Drug Discovery Kit” from Enzo Life Sciences (ELS) (Cat. # BML-AK555), with exceptions described as follows. Where indicated in figures and text, SIRT1 enzyme was replaced with another enzyme or extract and the “Fluor de Lys-SIRT1 Substrate” (Ac-Arg-His-Lys-Lys(Ac)-AMC; ELS Cat. # BML-KI-177) was replaced with another acetylated, succinylated or trifluoroacetylated substrate.

| Activity [pmol/min/µg] | Activity (pmol/min/μg) | Compound |
| --- | --- | --- |
| 0.391 |  | CC(=O)NCCCCC(NC(C)=O)C(=O)Nc1ccc2c(C)cc(=O)oc2c1 (centres unmarked) [Ac-Lys(Ac.)-AMC, Ac-Lys(ε-acetyl)-AMC, reference compound] |
|  | Undetectable | CC(=O)N[C@@H](CCCCNC(=O)CCC(=O)O)C(=O)Nc1ccc2c(C)cc(=O)oc2c1 [Compound 1, N—(N^α-acetyl-L-Lysine(N^ε-succinyl))-AMC] |
| 0.043 |  | CCCCCCCCCCCCCC(=O)NCCCC[C@H](NC(C)=O)C(=O)Nc1ccc2c(C)cc(=O)oc2c1 [Compound 4, N—(N^α-acetyl-L-Lysine(N^ε-myristoyl))-AMC] |
| 0.002 |  | COC(=O)CCC(=O)NCCCC[C@H](NC(C)=O)C(=O)Nc1ccc2c(C)cc(=O)oc2c1 [Compound 5, N—(N^α-acetyl-L-Lysine(N^ε-methyl succinyl))-AMC] |
|  | Ac-RHKK(Ac)-AMC/64 pmol/min/μg | Ac-Arg-His-Lys-Lys(ε-acetyl)-AMC (Ac-RHKK(Ac)-{AMC}; SMILES CC(=O)NCCCC[C@H](NC(=O)[C@H](CCCCN)NC(=O)[C@H](Cc1c[nH]cn1)NC(=O)[C@H](CCCNC(=N)N)NC(C)=O)C(=O)Nc1ccc2c(C)cc(=O)oc2c1) [Ac-RHKK(Ac)-AMC, p53 peptide fluorogenic deacetylase substrate, Cat. # BML-KI177, reference compound] |
